The values that follow come from patent publication US10004770B2, “Production and use of bacterial histamine” (BioGaia AB, priority 2011, dated 2018).

Entries after “also recorded” stand apart in the source; their conditions may differ.

In one test the test system is patients with IBS. Particulars: cited from earlier work.
The test system of test [1] is TNF production from TLR2-activated THP-1 cells. The experiment in a line: TNF inhibition bioassay and TNF ELISA. Particulars: for block of TNF-inhibition by histamine: antagonist added before histamine 10^-5 M, ranitidine, cimetidine 10^-4-10^-6 M, indomethacin 10^-5-10^-6 M; for TNF production (TNF inhibition): THP-1 cells stimulated with 100 ng/mL Pam3Cys-SKKKK, 3.5 h, samples 5% v/v, histamine 10^-5 M, 6475 grown in glucose media (LDMIIIG). It is filed as cell-based, human. On the procedure:
In vitro experiments were performed with THP-1 cells (human monocytoid cell line, ATCC, Manassas, Va.) maintained in RPMI (ATCC) and heat-inactivated fetal bovine serum (Invitrogen, Carlsbad, Calif.) at 37° C., 5% CO2. MEK1/2, phospho-MEK1/2, ERK1/2, and phospho-ERK1/2 antibodies and MEK inhibitor U0126 were received from Cell Signaling Technology (Danvers, Mass.), and the β-Actin antibody was received from Abcam (Cambridge, Mass.). All other reagents were received from Sigma (St. Louis, Mo.) unless otherwise stated.
Bacterial supernatants (10 mL) from a 24 h LDMIII culture were filter-sterilized using PVDF membrane filters (0.22 μm pore size, Millipore) and size fractionated as described above. One milliliter of the <3 kDa filtrate was speed vacuum dried and resuspended in RPMI media. These processed supernatant samples are termed conditioned media. All supernatants were normalized by volume to an OD600=1.0. Lyophilized fractions from the HILIC-HPLC separation were resuspended in 400 μL 10 mg/mL ammonium bicarbonate, speed vacuum dried, and resuspended in 400 μL RPMI media. Conditioned media and cell pellet wash fractions were tested for their ability to modulate TNF production in monocytoid cells. In brief, THP-1 cells (approximately 5×10^4 cells) were stimulated to produce TNF by the addition of 100 ng/mL Pam3Cys-SKKKK×3 HCl (EMC Microcollections, Tuebingen, Germany) as previously described. Inhibitors—H2 receptor antagonists, ranitidine and cimetidine (10^−4-10^−6 M), […], indomethacin (10^−5-10^−6 M), MEK inhibitor, U0126 (10 μM), and PKA inhibitor, H89 (N-[2-(p-bromocinnamylamino)ethyl]-5-isoquinolinesulfonamide dihydrochloride) (10^−5 M)—were added to the THP-1 cells followed by L. reuteri conditioned media or cell pellet wash fractions (5% v/v), histamine (10^−5 M), or dibutyryl cAMP (10^−3-10^−7 M). Plates were incubated at 37° C. and 5% CO2 for 3.5 h. THP-1 cells were pelleted (3000× g, 5 min, 4° C.), and quantitative ELISAs were used to determine TNF quantities in THP-1 cell supernatants according to the manufacturer's instructions (R&D Systems, Minneapolis, Minn.).
Background: In an ELISA, binding on a coated surface is turned into a signal by an enzyme label.

For another test, the system named is ERK1/2. The experiment in a line: ERK1/2 activation by Western blot. Particulars: activated THP-1 cells, compared to media control. The test is classed as cell-based, human. On the procedure: (§1) THP-1 cells were lysed in ice-cold lysis buffer consisting of 50 mM Tris, pH 7.4, 250 mM NaCl, 5 mM EDTA, 50 mM NaF, 1 mM Na3VO4, 1% v/v Nonidet P40, 0.2% v/v NaN3, and protease and phosphatase inhibitors. Lysates were incubated on ice for 30 min, vortexed every 10 min, and cleared by centrifugation at 13,000×g for 10 min at 4° C. Protein concentrations were measured using the Quant-iT™ Protein Assay kit (Invitrogen) and a Qubit fluorometer according to the manufacturer's instructions. Equal amounts of proteins were loaded onto electrophoresis gels.
(§2) Analysis of ERK1/2 activation was performed using specific phospho-ERK1/2 antibodies. Cell extracts were loaded on a 10% SDS-polyacrylamide gel and transferred to polyvinylidene difluoride membranes (Bio-Rad, Hercules, Calif.). Membranes were blocked overnight at 4° C. in blocking buffer (Li-Cor Biosciences, Lincoln, Nebr.). After several washes, membranes were probed with ERK1/2, phospho-ERK1/2 or β-Actin specific antibodies diluted in blocking buffer (Li-Cor) for 1 h at room temperature. After washes, membranes were incubated with the appropriate horseradish peroxidase-conjugated secondary antibody for 1 h at room temperature, and blots were then developed using a chemiluminescent detection. Analysis of MEK1/2 activation was performed as described above except primary antibody incubation was overnight at 4° C.

For the next test, the system named is MEK1/2. The test is described as follows: MEK1/2 activation by Western blot. The test is classed as cell-based, human. To be noted: activated THP-1 cells, compared to media control. As to the method: as §1, §2
(In western blotting, separated proteins are transferred to a membrane and probed.)

A further test deals with T1, H2 receptor (Mus musculus, UniProt P97292).
T1 construct: host or cells: living mice (endogenous receptor)
Particulars: endotoxin shock (LPS challenge) and hepatitis (LPS plus galactosamine challenge); cited from earlier work.

In test [2] the test system is intracellular cAMP in THP-1 cells (H2 receptor signaling). The experiment in a line: Intracellular cAMP in TLR2-stimulated THP-1 cells. The test is classed as cell-based, human. Particulars: THP-1 cells stimulated with TLR2 agonist. On the procedure: The H2 receptor is a G protein linked receptor that can activate adenylate cyclase and increase intracellular cAMP. TNF can be inhibited at the level of transcription by cAMP and cAMP analogs. THP-1 cells were stimulated with a TLR2 agonist in the presence of a medium control, 6475 supernatant or histamine with or without an H2 receptor antagonist and intracellular levels of cAMP were measured. […] A synthetic analog of cAMP, dibutyryl cAMP (dcAMP), was added to TLR2-stimulated THP-1 cells and the effect on TNF production was monitored.

For test [3], the system named is TNFR1. Particulars: cultured human endothelial cells; cited from earlier work.
The test system of test [4] is TNFR1. To be noted: injection into human skin engrafted on immunodeficient mice; cited from earlier work.
Test [5] relates to peripheral blood mononuclear cells. Particulars: cited from earlier work.
Another test has as its system LPS-induced liver injury. To be noted: mouse; cited from earlier work.
Test [6] deals with LPS-stimulated human monocytes and macrophages. To be noted: cited from earlier work.

T1 sequence (P97292 whole entry): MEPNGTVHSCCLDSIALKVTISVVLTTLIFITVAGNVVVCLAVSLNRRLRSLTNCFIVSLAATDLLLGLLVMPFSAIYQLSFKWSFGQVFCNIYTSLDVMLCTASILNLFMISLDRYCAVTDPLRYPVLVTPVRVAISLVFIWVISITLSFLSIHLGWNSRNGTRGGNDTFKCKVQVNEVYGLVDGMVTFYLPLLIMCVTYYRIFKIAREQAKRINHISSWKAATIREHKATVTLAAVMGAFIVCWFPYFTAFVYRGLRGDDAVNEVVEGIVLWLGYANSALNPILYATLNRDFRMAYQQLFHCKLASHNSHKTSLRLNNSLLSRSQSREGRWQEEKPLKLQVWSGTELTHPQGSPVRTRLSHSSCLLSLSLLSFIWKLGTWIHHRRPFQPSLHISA

`CN1CCC(=C2c3ccccc3CC(=O)c3sccc32)CC1` [ketotifen]: in the test on patients with IBS (patients with IBS), the IBS symptoms result is listed as “decreased IBS symptoms” and the pain threshold result is reported as “increased pain threshold”. Besides, in the test on patients with IBS (rectal biopsy tissue), the “number or activity of mast cells (histamine and tryptase release)” value was “no change”.
As for `COc1ccc2c(c1)c(CC(=O)O)c(C)n2C(=O)c1ccc(Cl)cc1` [indomethacin], in test [1], the “block of TNF-inhibition by histamine” value is on record as “no effect”.
For `N#CC(=C(/N)Sc1ccccc1N)/C(C#N)=C(\N)Sc1ccccc1N` [U0126], the “phosphorylation (activation) of ERK1/2” value in the test on ERK1/2 was “blocks phosphorylation; also recorded: suppressed activation of ERK1/2”. Also, in the test on MEK1/2, the “phosphorylation (activation) of MEK1/2” value was “blocks phosphorylation; also recorded: suppressed activation of MEK1/2”. Moreover, the TNF production entry in [1] (U0126 treatment for 30 min prior to TLR2 agonist stimulation) is recorded as “sufficient to prevent TNF production”.
For `CCCC(=O)Nc1ncnc2c1ncn2[C@@H]1O[C@@H]2COP(=O)(O)O[C@H]2[C@H]1OC(=O)CCC` [dcAMP, dibutyryl cAMP], the TNF production entry in [1] (dcAMP 10^-5-10^-3 M added to TLR2-stimulated THP-1 cells) is recorded as “sufficient to inhibit TNF production”.
Regarding `Cl.Cl.O=S(=O)(NCCNCC=Cc1ccc(Br)cc1)c1cccc2cnccc12` [H89, N-[2-(p-bromocinnamylamino)ethyl]-5-isoquinolinesulfonamide dihydrochloride], the “block of TNF inhibition by PKA inhibitor” value in test [1] (H89 10^-5 M in presence of 6475 supernatant, fraction B3, histamine or dcAMP) is given as “partially blocked TNF inhibition”.
Consider `CN(C)CCCSC(=N)N` [dimaprit], for which the “plasma TNF levels” value on H2 receptor is reported as “reduced plasma TNF levels”.
For the compound `CN/C(=N/CCSCc1nc[nH]c1C)NC#N` [cimetidine], the “block of TNF-inhibition by histamine” value in [1] is listed as “could block TNF-inhibition by histamine in a concentration dependent manner”.
On to `NCCc1c[nH]cn1` [histamine], for which the “intracellular cAMP” value in test [2] is reported as “increase in cAMP; also recorded: increased intracellular cAMP”. For the same compound, in the test with TNFR1 [3], the “TNFR1 surface level, shedding and mobilization” value was “transient loss of surface TNFR1, increased TNFR1 shedding, and mobilization of TNFR1 molecules from the Golgi”. The “phosphorylation (activation) of ERK1/2” value in the test with ERK1/2 is recorded as “blocks phosphorylation; also recorded: suppressed activation of ERK1/2”. Also, the “TNFR1 shedding and TNF-mediated induction of endothelial adhesion molecules” value in the test with TNFR1 [4] is “caused shedding of TNFR1 and diminished TNF-mediated induction of endothelial adhesion molecules”. The “phosphorylation (activation) of MEK1/2” value in the test on MEK1/2 is given as “blocks phosphorylation; also recorded: suppressed activation of MEK1/2”. For the same compound, the “TNF production (TNF inhibition)” value in [1] is listed as “concentration dependent; also recorded: significantly inhibited TNF production”; in [1] (listed as Histamine), “significantly inhibit TNF production”. In test [5], the “LPS-induced synthesis of TNF-α” value is given as “suppressed”. Besides, the “protection in LPS-induced liver injury” value in the test on LPS-induced liver injury is on record as “protective”. For the same compound, the “production of pro-inflammatory cytokines IL-1, IL-12 and TNF” value in test [6] (LPS-stimulated human monocytes and macrophages) was “can inhibit production”. Further, the “production of anti-inflammatory cytokine IL-10” value in test [6] (via the H2 receptor) is recorded as “can stimulate production”.
